Source: patent US20240262812A1, “N-SUBSTITUTED PHENYLSULFONAMIDE COMPOUND AND USE THEREOF” (Shanghai Leado Pharmatech Co., Ltd., priority 2021, published 2024)

Experiments:
[1] = test system: DNBS induced colitis in Wistar rats; experiment: DNBS induced colitis model in Wistar rats; assay type: in vivo, rat; design: Degree of adhesion (score) / Degree of intestinal infarction (score) / Severity of ulcer (score) / Degree of intestinal wall thickening (score) / Macroscopic colon score: scale not given here; details: oral once a day Day 0 to Day 6, compounds 10 mg/kg, osalazine sodium 300 mg/kg
From the text: The therapeutic effect of compounds prepared in some examples of the present invention on 2,4-dinitrobenzenesulfonic acid (DNBS) induced ulcerative colitis in Wistar rats (corresponding to Crohn's disease) was investigated.
• Animal species and strains: Wistar rats • Administration record: No administration history • Gender and weight: Male, about 150 g • Breeding party/supplier: Shanghai SLAC Laboratory Animal Co., Ltd • Adaptation period: 5 days • Room: Regular Area Rooms • Indoor temperature: 20-26° C. • Indoor relative humidity: 40-70% • Lighting: Fluorescent lighting, 12-hour illumination (08:00-20:00) and 12-hour no illumination • Animal feeding: 2-4 rats per cage (same administration group) • Food: Unlimited access to feed (disinfected by irradiation, Jiangsu Xietong Pharmaceutical Bio-engineering Co., Ltd., China) • Water: Unlimited access to drinking water (treated with reverse osmosis and high-pressure sterilization)
A total of 80 Wistar rats were purchased from Shanghai SLAC Laboratory Animal Co., Ltd, of which 10 were used as backup animals to select animals with suitable weight range included in the groups, in order to control the fluctuation of disease severity caused by weight fluctuations.
BioBook software was used to screen 70 animals for random grouping based on animal weight to ensure that the weight values of each group of animals were similar to reduce bias.
3.1 DNBS powder was dissolved in 30% ethanol with a final concentration of 60 mg/mL.
3.2 Induction of colorectal inflammation: Before the experiment, rats were fasted for 40 hours and subcutaneously injected with 5% glucose saline during the fasting period. On the day 0 of the experiment, fasting rats were anesthetized by intraperitoneal injection of Zoletil and 5 mg/kg Xylazine. G2 group-G7 group, a hose was extended from the anus to the left curvature of the colorectum, and colorectal inflammation in rats was induced with DNBS enema. The normal control group (G1) was treated with 30% ethanol enema using the same method.
3.3. Dosage regimen: After DNBS induction in G1 and G2 groups of animals, solvent was administered. After DNBS induction in G3 group, 300 mg/kg of oxalazine sodium was administered. After DNBS induction in G4 to G7 groups, 10 mg/kg of the compounds of the present invention were administered respectively. Please refer to Table 3 for the administration time, specific administration dosage, and administration route. Starting from day 0 of modeling, the drugs were administered continuously for 7 days, and the animals were euthanized on day 6.
3.4 Testing indicators: After the experiment, all animals were euthanized by inhaling excessive CO2 and dislocation of cervical vertebra. After the abdominal cavity was cut open, the colorectum was taken out and the length of it was immediately measured. Then the colorectum was longitudinally cut open and rinsed clean. The weight of the colorectum and the area of the ulcer were recorded and the whole was photographed. At the same time, the damage to the rat colorectum was evaluated macroscopically according to Table 4.
The health status of animals and their comprehensive response to surgery and medication were observed every day.
The experimental data was calculated as mean±standard error. Statistical analysis was performed using Graphpad Prism, SPSS, or Sigmaplot software. The specific data is presented in the form of charts. P<0.05 is considered to have statistical differences.

[2] = test system: DNBS, TNBS, or DSS induced colitis; details: administration of selective TRPA1 inhibitor; background; cited from earlier work
[3] = test system: acute gastric mucosal injury; details: background; cited from earlier work

SMILES | Degree of adhesion (score) ([1]; mean score per Table 4) | Degree of intestinal infarction (score) ([1]; mean score per Table 4) | Degree of intestinal wall thickening (score) ([1]; mean score per Table 4) | Severity of ulcer (score) ([1]; mean score per Table 4) | Macroscopic colon score ([1]; mean total score) | Colon length ([1]; mean) [cm] | Colon weight ([1]; mean) | Ulcer area ([1]; mean) | Ulcer length ([1]; mean) [cm] | Ulcer width ([1]; mean) [cm] | symptom of colitis in animals [2] | result in rat model of acute gastric mucosal injury [3]
O=C([O-])c1cc(/N=N/c2ccc(O)c(C(=O)[O-])c2)ccc1O.[Na+].[Na+] [osalazine sodium, reference compound] | 0.00 | 0.00 | 0.40 | 1.50 | 1.90 | 14.33 | 1.41 g | 0.30 cm^2 | 0.71 | 0.34 | – | –
CC(C)c1ccc(NC(=O)Cn2cnc3c2c(=O)n(C)c(=O)n3C)cc1 [HC-030031, HC030031] | – | – | – | – | – | – | – | – | – | – | significantly alleviated the symptom of colitis in animals | showed positive result
O=C([O-])c1cc(/N=N/c2ccc(O)c(C(=O)[O-])c2)ccc1O.[Na+].[Na+] [oxalazine sodium, reference compound] | – | – | – | – | – | – | significantly reduce | significantly reduce | – | – | – | –
